The values that follow come from US4740233A, “Substituted 1,2,4-triazolo[1,5-a]-pyrimidine-2-sulfonamides and compositions and methods of controlling undesired vegetation and suppressing the nitrification of ammonium nitrogen in soil” (The Dow Chemical Company, priority 1986, dated 1988).

Molecules are shown by their SMILES.

The experiment has as its system nitrification of ammonium nitrogen. The experiment in a line: Suppression of nitrification of ammonium nitrogen in soil. The note with it: 27° C. The protocol: A sufficient volume of water was added to 20 g of the soil in a wide-mouth, screw-cap, 4-ounce, glass bottle, such that the moisture content of the mixture was made equal to the 1/3 bar tension value for that soil. The mixture was thoroughly mixed before sealing. […] Acetone slows the rate of soil nitrification and its concentration must be carefully controlled. Single samples of each test chemical were incubated for two weeks at 27° C.
The experiment comprised the following types of samples:
The soil samples were analyzed as follows: Sufficient ammonium sulfate extracting solution was added to the sample, such that the total volume of added water was 50 ml (included water added during sample preparation). The capped mixture was shaken 10 minutes to solubilize nitrate and the soil particulates were allowed to settle. The nitrate concentration in the water phase was determined with a nitrate-specific ion electrode such as Orion Model 93-07.
The non-nitrate nitrogen remaining (% NH4 -N remaining) in the soil after two weeks (performance value) was calculated as follows: [formula]

As for `Cc1cc(C)n2nc(S(=O)(=O)Nc3ccccc3C(=O)OC(C)C)nc2n1` [Compound 36], the “% NH4-N Remaining After 2 Weeks Incubation” value came out at 0% (0.01 ppm), 0% (0.1 ppm), 17% (1 ppm) and 60% (10 ppm).
For `Cc1cc(C)n2nc(S(=O)(=O)Nc3cccc(Cl)c3C)nc2n1` [Compound 68], the “% NH4-N Remaining After 2 Weeks Incubation” value (0.06 ppm) turned out to be 0%, the “% NH4-N Remaining After 2 Weeks Incubation” value (0.25 ppm) came out at 20%, the “% NH4-N Remaining After 2 Weeks Incubation” value (1 ppm) amounted to 16% and the “% NH4-N Remaining After 2 Weeks Incubation” value (4 ppm) was determined as 57%.
Turning to `COC(=O)c1cccc(F)c1NS(=O)(=O)c1nc2nc(C)ccn2n1` [Compound 159], the “% NH4-N Remaining After 2 Weeks Incubation” value is listed as 49% (0.06 ppm), 56% (0.25 ppm), 80% (1 ppm) and 94% (4 ppm).
In the case of `O=S(=O)(Nc1ccccc1)c1nc2ncc(Cl)cn2n1` [Compound 120], the “% NH4-N Remaining After 2 Weeks Incubation” value was found to be 71% (0.06 ppm), 46% (0.25 ppm), 63% (1 ppm) and 87% (4 ppm).
The like results for `CCCSc1ccccc1NS(=O)(=O)c1nc2nc(C)cc(C)n2n1` [Compound 67] were, in that order, 0%, 0%, 41% and 69%.
Consider `Cc1cc(C)n2nc(S(=O)(=O)Nc3ccccc3C(=O)O)nc2n1` [Compound 11], for which the “% NH4-N Remaining After 2 Weeks Incubation” value by setting is: (0.01 ppm) 0%; (0.1 ppm) 0%; (1 ppm) 0%; (10 ppm) 5%.
Take `CCOC(=O)CN(c1c(Cl)cccc1Cl)S(=O)(=O)c1nc2nc(C)cc(C)n2n1` [Compound 264]: the “% NH4-N Remaining After 2 Weeks Incubation” value was determined as 0% (0.06 ppm), 1% (0.25 ppm), 26% (1 ppm) and 37% (4 ppm).
As for `CSc1cccc(C)c1NS(=O)(=O)c1nc2nc(C)cc(C)n2n1` [Compound 70], the “% NH4-N Remaining After 2 Weeks Incubation” value runs as follows: (0.06 ppm) 0%; (0.25 ppm) 29%; (1 ppm) 69%; (4 ppm) 87%.
In the case of `CCOc1cnc2nc(S(=O)(=O)Nc3c(C)cccc3Cl)nn2c1` [Compound 202], the “% NH4-N Remaining After 2 Weeks Incubation” value reads like this: (0.06 ppm) 0%; (0.25 ppm) 0%; (1 ppm) 0%; (4 ppm) 32%.
Consider `CNc1ccccc1NS(=O)(=O)c1nc2nc(C)cc(C)n2n1` [Compound 5], for which the “% NH4-N Remaining After 2 Weeks Incubation” value is, setting by setting: (0.01 ppm) 0%; (0.1 ppm) 0%; (1 ppm) 1%; (10 ppm) 28%.
For the molecule `Cc1ccn2nc(S(=O)(=O)Nc3c(Cl)ccc(C)c3Cl)nc2n1` [Compound 147], the “% NH4-N Remaining After 2 Weeks Incubation” value was found to be 41% (0.06 ppm), 55% (0.25 ppm), 72% (1 ppm) and 87% (4 ppm).
`Cc1cc(C)n2nc(S(=O)(=O)Nc3nc4c(Cl)cccc4s3)nc2n1` [Compound 258]: the “% NH4-N Remaining After 2 Weeks Incubation” value was 0% (0.01 ppm), 0% (0.1 ppm), 23% (1 ppm) and 78% (10 ppm).
As for `CSc1ccccc1NS(=O)(=O)c1nc2ncccn2n1` [Compound 135], the “% NH4-N Remaining After 2 Weeks Incubation” value amounted to 0% (0.01 ppm), 0% (0.1 ppm), 12% (1 ppm) and 100% (10 ppm).
